Data reported in US6906179B2, “Antibody to SNIP1” (The General Hospital Corporation, priority 1999, dated 2005).

Assays:
HEF1 mRNA = assay: Induction of HEF1 mRNA in HaCaT cells; format: cell-based
endogenous HEF1 [1] = assay: TGF-β regulation of endogenous HEF1 in H9 cells, Western blot and pulse chase; format: cell-based, human
Method: The ability of TGF-β to regulate the protein level of endogenous HEF1 in TGF-β responsive cells was tested. The human T lymphoblastoid H9 cells were either not exposed to TGF-β or pre-treated with TGF-β for different time periods. Cells were then harvested at the same time and HEF1 protein level was determined by Western blot using anti-HEF1 antibody. […] The predominant form of HEF1 labeled within the 30 min pulse period is p105HEF1. The pulse-labeled p105HEF1 was reduced to basal level within 60 min in TGF-β-stimulated cells but took more than 120 min in the absence of TGF-β. Thus, TGF-β can enhance HEF1 degradation in native H9 cells.

endogenous HEF1 [2] = assay: TGF-β regulation of endogenous HEF1 in A549 lung carcinoma cells; format: cell-based
Method: In A549 lung carcinoma cells, which predominantly express p115HEF1, a decrease of endogenous p115HEF1 was detected after 15 min exposure to TGF-β. Furthermore, LLnL was able to block the TGF-β induced decrease of endogenous HEF1, indicating the involvement of the proteasome in this event. The change of p105HEF1 in response to TGF-β was also observed, but not as apparent as p115HEF1 due to the very low level of p105HEF1 in this cell line. It was noted that the steady-state level of both p115HEF1 and p105HEF1 increased after 3 hrs of TGF-β stimulation. […] To directly test this, we performed a time-course Northern blot on HEF1 mRNA isolated from A549 cells treated with TGF-β for different time periods. […] Thus, TGF-β down-regulates HEF1 protein level via proteasomal degradation and also induces HEF1 mRNA level via transcriptional activation, which may serve as a negative feedback mechanism to restore HEF1 protein level.

For TGF-β, which “HEF1 mRNA” value (HEF1 mRNA) is on record?
Its value is “induction of HEF1 mRNA”.

What about the “steady-state levels of p115 and p105 HEF1” value (endogenous HEF1 [1]) of the same substance?
Its value is “started to decrease after 30 min exposure”.

And the “time for pulse-labeled p105HEF1 to be reduced to basal level” value (endogenous HEF1 [1]; TGF-β-stimulated, 30 min pulse)?
The value was at most 60 min.

What about the p105HEF1 level (endogenous HEF1 [1]; after 3 hrs of TGF-β treatment) of the same substance?
The p105HEF1 level was “greatly reduced”.

What about the p115HEF1 level (endogenous HEF1 [1]; after 3 hrs of TGF-β treatment) of the same substance?
The p115HEF1 level was “almost undetectable”.

What about the “exposure after which decrease of endogenous p115HEF1 was detected” value (endogenous HEF1 [2]) of the same substance?
The value was 15 min.

And the “steady-state level of p115HEF1 and p105HEF1” value (endogenous HEF1 [2]; after 3 hrs of TGF-β stimulation)?
Its value is “increased”.

What about the “level of HEF1 mRNA, Northern blot” value (endogenous HEF1 [2]; as early as 1 hr after treatment) of the same substance?
The value was “dramatically increased”.
